The test system of experiment [1] is anti-BSA-cmoCLA(ae) antibodies. Put plainly: Indirect competitive ELISA (icELISA), variants by coating antigen. The class given is binding, rabbit. As to conditions: for CR: CLA = 100. As for the experimental part: In present work, we investigated and compared several new-designed and previously established coating antigens, which were adsorbed on the 96-well Costar plates from 0.1 to 3.0 µg/mL solutions in CBB (pH 9.6) overnight at 4 °C. […] Solutions of these analytes (1 pg/mL–1 μg/mL) were added to wells of the plate along with anti-cmoCLA antibody in PBS-T with 1%BSA and incubated for 1 h at 25 °C in plate-shaker ST-3 L (ELMI Ltd. laboratory equipment, Riga, Latvia). GAR-HRP was used to detect antigen-antibody formed complexes for 1 h at 37 °C. The activity of the bound enzyme was detected using TMB-substrate mixture, and the intensity of colored product was read at 450 nm using a LisaScan spectrophotometer (Erba Mannheim, Czech Republic). […] The relative antibody-binding absorbance (B/B0) was determined for each concentration of analyte and used to construct a calibration curve as B/B0 versus the concentration. Structurally related macrolides CLA, ESE, ROX, AZI, DIR, TUL, and OLE were analyzed for their cross-reactions. […] Assay sensitivity, limit of detection (LOD), and working range of the assay were set as values of IC50, IC10, and IC20-IC80 range, respectively.
A general note: In an ELISA, binding on a coated surface is turned into a signal by an enzyme label.

Experiment [2] relates to anti-BSA-cmoCLA(ae) antibodies. On the set-up: method as in PMID 25256165. As to conditions: coating antigen GEL-cmoCLA(ae), cited from earlier work; for IC50: homologous; for CR: CLA = 100, recalculated from ref 18.
Experiment [3] has as its system antibody to immunogen BSA-cmoERY(ma). On the set-up: method as in PMID 25308648. The following applies: milk; ERY = 100; cited from earlier work.
Experiment [4] deals with antibody to immunogen BSA-cmoCLA(ae). On the set-up: method as in doi:10.1039/C9QM00429G. As to conditions: milk, cited from earlier work; for CR: CLA = 100.
The test system is the same in experiment [5]. More on the design: method as in PMID 32693204. The following applies: breast milk, cited from earlier work; for CR: CLA = 100.
Experiment [6] concerns antibody to immunogen BSA-cmoERY(ma). The following applies: milk; ERY = 100; cited from earlier work.
Where [7] appears, read: coating antigen OVA-aecAZI(dma).

The values below come from publication PMC10605010, “Immunotechniques for the Group Determination of Macrolide Antibiotics Traces in the Environment Using a Volume-Mediated Sensitivity Enhancement Strategy” (Biosensors, 2023).

In brackets after ≈: the same amount, converted by molar mass. Several values for one entry are separate records, joined by “and”; a condition that tells them apart may be missing. Equal values may be shown once. Read-outs that look alike come from different tables or passages of the source.

A word on the IC50: it is the concentration needed to halve the response being measured. On to `CC[C@H]1OC(=O)[C@H](C)[C@@H](O[C@H]2C[C@@](C)(OC)[C@@H](O)[C@H](C)O2)[C@H](C)[C@@H](O[C@@H]2O[C@H](C)C[C@H](N(C)C)[C@H]2O)[C@](C)(O)C[C@@H](C)CN(C)[C@H](C)[C@@H](O)[C@]1(C)O` [AZI, azithromycin], for which the IC50 in experiment [1] (coating antigen OVA(pi)-aecAZI) was 0.107 ng/mL (≈ 0.143 nM); in experiment [1] (setting [7]) it was 1.220 ng/mL (≈ 1.63 nM); in experiment [1] (coating antigen OVA-aecAZI(ga)), 0.315 ng/mL (≈ 0.421 nM); in experiment [1] (coating antigen OVA-cmoERY(ae)), 1.990 ng/mL (≈ 2.66 nM); in experiment [2], 1.63 ng/mL (≈ 2.18 nM). Further, the CR in experiment [1] (coating antigen OVA(pi)-aecAZI) was 41% and 41.1%; in experiment [1] (setting [7]) it was 12.9%; in experiment [1] (coating antigen OVA-aecAZI(ga)), 13.7%; in experiment [1] (coating antigen OVA-cmoERY(ae)), 9% and 8.6%; in experiment [2], 9% and 8.8%; in experiment [3] it was 0.9%. For the same molecule, the CR was 16.2% in experiment [4] and 5.7% in experiment [5]. For the same molecule, the “CR (detectability)” value in experiment [1] (span over all ELISAs utilizing coated AZI conjugates) was 13–41%.

`CC[C@H]1OC(=O)[C@H](C)[C@@H](O[C@H]2C[C@@](C)(OC)[C@@H](O)[C@H](C)O2)[C@H](C)[C@@H](O[C@@H]2O[C@H](C)C[C@H](N(C)C)[C@H]2O)[C@](C)(OC)C[C@@H](C)C(=O)[C@H](C)[C@@H](O)[C@]1(C)O` [CLA, clarithromycin]: the IC50 in experiment [1] (coating antigen OVA(pi)-aecAZI) is on record as 0.044 ng/mL (≈ 0.0588 nM); in experiment [1] (setting [7]) it was 0.157 ng/mL (≈ 0.21 nM); in experiment [1] (coating antigen OVA-aecAZI(ga)), 0.043 ng/mL (≈ 0.0575 nM); in experiment [1] (coating antigen OVA-cmoERY(ae)), 0.172 ng/mL (≈ 0.23 nM); in experiment [2] it was 0.16 ng/mL (≈ 0.214 nM); in experiment [4] it was 0.16 ng/mL (≈ 0.214 nM). Further, in experiment [5], the IC50 was 0.45 ng/mL (≈ 0.602 nM). For the same molecule, the CR in experiment [1] (coating antigen OVA(pi)-aecAZI) is on record as 100%; in experiment [1] (setting [7]), 100%; in experiment [1] (coating antigen OVA-aecAZI(ga)), 100%; in experiment [1] (coating antigen OVA-cmoERY(ae)), 100%; in experiment [2], 100%; in experiment [3], 26.7%. Also, the CR is 100% in experiment [4], 100% in experiment [5] and 26.7% in experiment [6]. For the same molecule, the values for the LOD in experiment [4] and in experiment [5] were 0.095 ng/mL and 0.12 ng/mL, respectively.

With `CC[C@H]1OC(=O)[C@H](C)[C@@H](O[C@H]2C[C@@](C)(OC)[C@@H](O)[C@H](C)O2)[C@H](C)[C@@H](O[C@@H]2O[C@H](C)C[C@H](N(C)C)[C@H]2O)[C@](C)(O)C[C@@H](C)[C@@H]2N[C@@H](COCCOC)O[C@H]([C@H]2C)[C@]1(C)O` [DIR, dirithromycin], the 50% inhibitory concentration (IC50) is given as 0.096 ng/mL (≈ 0.115 nM) in experiment [1] (coating antigen OVA(pi)-aecAZI), 0.544 ng/mL (≈ 0.651 nM) in experiment [1] (setting [7]), 0.136 ng/mL (≈ 0.163 nM) in experiment [1] (coating antigen OVA-aecAZI(ga)) and 0.554 ng/mL (≈ 0.663 nM) in experiment [1] (coating antigen OVA-cmoERY(ae)). Besides, the CR is listed as 45.8% in experiment [1] (coating antigen OVA(pi)-aecAZI); 28.9% in experiment [1] (setting [7]); 31.6% in experiment [1] (coating antigen OVA-aecAZI(ga)); 31% in experiment [1] (coating antigen OVA-cmoERY(ae)); 157% in experiment [3]; 5.4% in experiment [5]. In addition, the CR in experiment [6] is 157%.

For the molecule `CCOC(=O)CCC(=O)O[C@H]1[C@H](O[C@@H]2[C@@H](C)[C@H](O[C@H]3C[C@@](C)(OC)[C@@H](O)[C@H](C)O3)[C@@H](C)C(=O)O[C@H](CC)[C@@](C)(O)[C@H](O)[C@@H](C)C(=O)[C@H](C)C[C@@]2(C)O)O[C@H](C)C[C@@H]1N(C)C` [ESE, erythromycin ethyl succinate], the IC50 in experiment [1] (coating antigen OVA(pi)-aecAZI) is given as 0.074 ng/mL; in experiment [1] (setting [7]) it was 0.352 ng/mL; in experiment [1] (coating antigen OVA-aecAZI(ga)), 0.094 ng/mL; in experiment [1] (coating antigen OVA-cmoERY(ae)) it was 0.466 ng/mL. In addition, the CR was 59.5% in experiment [1] (coating antigen OVA(pi)-aecAZI); 44.6% in experiment [1] (setting [7]); 45.7% in experiment [1] (coating antigen OVA-aecAZI(ga)); 37% and 36.9% in experiment [1] (coating antigen OVA-cmoERY(ae)); 43.7% in experiment [6].

As to `CO[C@H]1C[C@H](O[C@H]2[C@H](C)[C@@H](O[C@@H]3O[C@H](C)C[C@H](N(C)C)[C@H]3O)[C@@H](C)C[C@@]3(CO3)C(=O)[C@H](C)[C@@H](O)[C@@H](C)[C@@H](C)OC(=O)[C@@H]2C)O[C@@H](C)[C@@H]1O` [OLE, oleandomycin], the half-inhibitory concentration (IC50) was 45.64 ng/mL (≈ 66.3 nM) in experiment [1] (coating antigen OVA(pi)-aecAZI), 287.2 ng/mL (≈ 418 nM) in experiment [1] (setting [7]), 40.10 ng/mL (≈ 58.3 nM) in experiment [1] (coating antigen OVA-aecAZI(ga)) and 75.75 ng/mL (≈ 110 nM) in experiment [1] (coating antigen OVA-cmoERY(ae)). Further, the CR in experiment [1] (coating antigen OVA(pi)-aecAZI) is on record as 0.1%; in experiment [1] (setting [7]), 0.05%; in experiment [1] (coating antigen OVA-aecAZI(ga)), 0.11%; in experiment [1] (coating antigen OVA-cmoERY(ae)), 0.2%.

Take `CC[C@H]1OC(=O)[C@H](C)[C@@H](O[C@H]2C[C@@](C)(OC)[C@@H](O)[C@H](C)O2)[C@H](C)[C@@H](O[C@@H]2O[C@H](C)C[C@H](N(C)C)[C@H]2O)[C@](C)(O)C[C@@H](C)/C(=N\OCOCCOC)[C@H](C)[C@@H](O)[C@]1(C)O` [ROX, roxithromycin]: the IC50 in experiment [1] (coating antigen OVA(pi)-aecAZI) is recorded as 0.051 ng/mL (≈ 0.0609 nM); in experiment [1] (setting [7]), 0.157 ng/mL (≈ 0.188 nM); in experiment [1] (coating antigen OVA-aecAZI(ga)) it was 0.040 ng/mL (≈ 0.0478 nM); in experiment [1] (coating antigen OVA-cmoERY(ae)), 0.125 ng/mL (≈ 0.149 nM); in experiment [2], 0.14 ng/mL (≈ 0.167 nM). Moreover, the CR is given as 86.3% in experiment [1] (coating antigen OVA(pi)-aecAZI); 100% in experiment [1] (setting [7]); 107.5% in experiment [1] (coating antigen OVA-aecAZI(ga)); 137.6% in experiment [1] (coating antigen OVA-cmoERY(ae)); 125% in experiment [2]; 14.8% in experiment [3]. For the same molecule, the CR in experiment [4] was 21.1%; in experiment [5], 97.8%; in experiment [6], 92%.

On to `CCCNC[C@]1(O)[C@H](C)O[C@@H](O[C@H]2[C@H](C)[C@@H](O[C@@H]3O[C@H](C)C[C@H](N(C)C)[C@H]3O)[C@](C)(O)C[C@@H](C)CN[C@H](C)[C@@H](O)[C@](C)(O)[C@@H](CC)OC(=O)[C@@H]2C)C[C@@]1(C)OC` [TUL, tulathromycin], for which the IC50 in experiment [1] (coating antigen OVA(pi)-aecAZI) is recorded as 5.403 ng/mL (≈ 6.7 nM); in experiment [1] (setting [7]), 379.5 ng/mL (≈ 471 nM); in experiment [1] (coating antigen OVA-aecAZI(ga)) it was 134.8 ng/mL (≈ 167 nM); in experiment [1] (coating antigen OVA-cmoERY(ae)), 629.9 ng/mL (≈ 781 nM). Besides, the CR in experiment [1] (coating antigen OVA(pi)-aecAZI) is 0.81%; in experiment [1] (setting [7]), 0.04%; in experiment [1] (coating antigen OVA-aecAZI(ga)), 0.03%.
